Target: T1, 5-hydroxytryptamine receptor 1A (Rattus norvegicus, UniProt P19327)
T1 sequence (P19327 whole entry): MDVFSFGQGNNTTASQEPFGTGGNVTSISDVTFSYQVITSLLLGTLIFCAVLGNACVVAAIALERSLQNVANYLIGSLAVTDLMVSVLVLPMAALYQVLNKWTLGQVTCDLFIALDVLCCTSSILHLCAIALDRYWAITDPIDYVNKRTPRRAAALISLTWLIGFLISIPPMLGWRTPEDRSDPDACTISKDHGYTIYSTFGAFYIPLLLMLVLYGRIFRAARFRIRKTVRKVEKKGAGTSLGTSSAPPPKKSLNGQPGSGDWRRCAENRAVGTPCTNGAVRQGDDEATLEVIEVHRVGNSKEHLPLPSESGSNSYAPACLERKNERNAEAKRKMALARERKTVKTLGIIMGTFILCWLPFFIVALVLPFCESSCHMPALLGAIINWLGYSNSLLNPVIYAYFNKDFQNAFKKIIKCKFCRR
Test: Displacement of [3H]8-OH-DPAT from 5HT1A receptor in rat hippocampal membranes

Compound `CC1CC2(C)CC(=O)C1C1C(=O)N(OCCCN3CCN(c4ccccc4F)CC3)C(=O)C12` (stereo unspecified) [4-{3-[4-(2-Fluorophenyl)piperazin-1-yl]propoxy}-1,11-dimethyl-4-azatricyclo[5.2.2.0(2,6)]undecane-3,5,8-trione] has a Ki of 331 nM.
